From article PMC9416257, “Design, Synthesis and Preliminary Evaluation of the Cytotoxicity and Antibacterial Activity of Novel Triphenylphosphonium Derivatives of Betulin” (Molecules, 2022)
Read-outs that look alike come from different tables or passages of the source.

How the values were obtained:
[1] = tested on: HCT 116 (colorectal carcinoma cell line); assay: Cytotoxicity, CCK-8 cell viability assay; type: cell-based; details: Homo sapiens, read-out: Activity IC50, HCT 116
Experimental: (§1) The obtained new molecular hybrids of BN were screened in order to initially investigate their cytotoxicity as well as examine the relationships between the structure and biological effect. The common element of all of the tested compounds was the presence of a lipophilic moiety (CH2)nTPP^⊕ (n = 3, 4, 5). The research was conducted on two groups of compounds: 28-TPP^⊕ BN and 3,28-bisTPP^⊕ BN. Their cytotoxicity was investigated on two cancer cell lines: HCT 116 (colorectal carcinoma cell line) and MCF-7 (human breast adenocarcinoma cell line). The proliferation of tumor cells treated with the tested compounds (7 and 9) at 12.5–3.125 µM concentrations were determined after 24 h of incubation. Additionally, all compounds were tested against the NHDF cell line (Normal Human Dermal Fibroblast cells) to assess their safety. Half-maximal inhibitory concentrations (IC50) of triphenylphosphonium analogs of BN were determined using a CCK-8 assay and are summarized in Table 2.
(§2) The human colorectal carcinoma cell line (HCT 116) and the human breast adenocarcinoma cell line (MCF-7) cells were purchased from the American Type Culture Collection (ATCC, Manassas, VA, USA). The Normal Human Dermal Fibroblast (NHDF) cells were purchased from Lonza (Dermal Fibroblasts, Lonza, Poland). All cells were cultured under standard conditions at 37 °C in a humidified atmosphere at 5% CO2 in DMEM/F12 medium (PAA) supplemented with 10% of heat-inactivated fetal bovine serum (FBS, EURx, Gdansk, Poland) and antibiotics (penicillin/streptomycin).
(§3) Cells were seeded at 7500 (HCT 116) or 10,000 (MCF-7, NHDF) cells/well in 96-well plates. After 24 h, the culture medium was removed and 100 µL of fresh medium containing the test compounds at 0–12.5 µM concentrations was added to the culture wells. The test compounds were dissolved in DMSO to obtain a stock solution with a concentration of 5 mM (betulin) or 10 mM (other test compounds). The stock solution was diluted with the fresh culture medium to the desired concentration. Controls were cells grown in medium without the addition of test compounds. After 24 h of incubation with the test compounds, 10 µL of CCK-8 reagent (Bimake, Houston, TX, USA) was added to each well. After 2 h, the absorbance of the samples was measured at a wavelength of 450 nm using a microplate reader (Epoch, BioTek Instruments, Winooski, VT, USA). The determinations were conducted in at least three biological replications (each biological replication contained 3 technical replications). The cell viability rate was calculated using CalcuSyn software (version 2.0, Biosoft, Cambridge, UK).

[2] = tested on: MCF-7 (human breast adenocarcinoma cell line); assay: Cytotoxicity, CCK-8 cell viability assay; type: cell-based; details: read-out: Activity IC50, MCF-7
Experimental: as §1, §2
as §3, with “After 24 h, the culture medium was removed and 100 µL of fresh medium containing the test compounds at 0–12.5 µM concentrations was added to the culture wells.” left out

[3] = tested on: NHDF (Normal Human Dermal Fibroblast cells); assay: Cytotoxicity, CCK-8 cell viability assay (safety on normal cells); type: cell-based; details: read-out: Activity IC50, NHDF
Experimental: as §1, §2, §3

S. aureus ATCC 25923 = assay: Antibacterial assay, optical density of culture in TSB; type: cell-based, Staphylococcus aureus; details: 18 h; for Difference between optical density before and after culture, S. aureus ATCC 25923: 37 °C
Experimental: (§4) Investigations were carried out using different concentrations of solutions from 25 to 250 µM. A 25 µM concentration of the tested derivatives was not enough to inhibit the growth of […]. When the concentration of analogs 7d–7f and 9a–9c increased to 200 µM, the growth of S. aureus ATCC 25923 and S. epidermidis ATCC 12228 was inhibited. Furthermore, the optical density of all compounds remained unchanged after 18 h of bacteria culture. In the case of analogs 7a–7c, the optical density values were between 0.9 and 2.2 when they were cultured with S. aureus ATCC 25923. The bacterial growth was slower compared to the control sample (TSB-culture medium). […] In the case of analog 7c, the optical density increased up to […] after 18 h of the sample culture with both kinds of Gram-positive bacteria. In contrast, the reference sample’s (TSB) optical density increased to 7.5 for S. aureus ATCC 25923, and 4.9 for S. epidermidis ATCC 12228 after 18 h of bacteria culture. […] All of the analog values of the measured optical density were similar to that of the reference sample (5.0–5.1, Table 3).
(§5) Antibacterial analysis was performed using the S. aureus ATCC 25923, S. epidermidis ATCC 12228, and Escherichia coli ATCC 25922 bacteria strains. The test compounds were dissolved in DMSO to obtain a stock solution with a concentration of 5 mM (betulin) or 10 mM (other test compounds). The stock solution was diluted with water to the desired concentration (25–250 µM). Then, 1 mL of the investigated solutions was mixed with 1 mL of culture medium (TSB, Biomaxima, Lublin, Poland) in a sterile glass tube. The initial concentration of bacteria was around 5 × 10^6 CFU/mL. The concentration of bacteria was measured using an optical densitometer before and after 18 h of bacteria culture in glass tubes at 37 °C (incubator POL-EKO, Wodzislaw Slaski, Poland). The investigations were repeated for three independent samples. The control sample was the culture medium without any supplementation.

[4] = tested on: S. epidermidis ATCC 12228; assay: as above; type: cell-based, Staphylococcus epidermidis; details: 18 h; for Difference between optical density before and after culture, S. epidermidis ATCC 12228: 37 °C
Experimental: as §4, §5

[5] = tested on: Escherichia coli ATCC 25922; assay: as above; type: cell-based; details: 37 °C, 18 h; note: key: 0: no difference between samples after 18 h of bacteria culture (bacteria grow was inhibited); neg: negative results (analog BN did not inhibit bacteria growing)
Experimental: as §4, §5

[6] = HCT-116, CCK-8 assay, incubation time 24 h, mean ± SD (n = 3)
[7] = MCF7, CCK-8 assay, incubation time 24 h, mean ± SD (n = 3)
[8] = CCK-8 assay, incubation time 24 h, mean ± SD (n = 3)

Structure (SMILES) | IC50 [1, 6] | IC50 [2, 7] | IC50 [3, 8] | Difference between optical density before and after culture, S. aureus ATCC 25923 (S. aureus ATCC 25923; 200 μM) | Difference between optical density before and after culture, S. aureus ATCC 25923 (S. aureus ATCC 25923; 250 μM) | Inhibition of growth of S. aureus ATCC 25923 (in words) (S. aureus ATCC 25923; 250 µM) | Difference between optical density before and after culture, S. epidermidis ATCC 12228 ([4]; 200 μM) | Difference between optical density before and after culture, S. epidermidis ATCC 12228 ([4]; 250 μM) | Inhibition of growth of S. epidermidis ATCC 12228 (in words) ([4]; 250 µM) | Difference between optical density before and after culture, Escherichia coli ATCC 25922 ([5]; 200 μM) | Difference between optical density before and after culture, Escherichia coli ATCC 25922 ([5]; 250 μM) | IC50 ([1]; HCT-116, 24 h) | IC50 ([2]; MCF7, 24 h) | IC50 ([3]; 24 h)
C=C(C)[C@@H]1CC[C@]2(COC(=O)CCC(=O)OCCC[P+](c3ccccc3)(c3ccccc3)c3ccccc3)CC[C@]3(C)C(CCC4[C@@]5(C)CC[C@H](OC(C)=O)C(C)(C)C5CC[C@]43C)C12 (stereo partly drawn) [7a, 3-O-Acetyl-28-O’-(3’-(3"-triphenylphosphoniopropyloxycarbonyl)propanoyl)betulin bromide] | 5.56 ± 0.28 µM | 13.7 ± 0.54 µM | 9.68 ± 0.27 µM | 0.9 McFarland’s scale (CFU/mL) | 0 | greatly inhibited the growth | neg | 0 | greatly inhibited the growth | neg | neg |  |  | 
C=C(C)[C@@H]1CC[C@]2(COC(=O)CCC(=O)OCCC[P+](c3ccccc3)(c3ccccc3)c3ccccc3)CC[C@]3(C)C(CCC4[C@@]5(C)CC[C@H](OC(=O)CCC(=O)OCCC[P+](c6ccccc6)(c6ccccc6)c6ccccc6)C(C)(C)C5CC[C@]43C)C12 (stereo partly drawn) [9a, 3,28-O,O′-Bis(3’-(3"-triphenylphosphoniopropyloxycarbonyl)propanoyl)betulin bromide] |  |  |  | 0 | 0 |  | 0 | 0 |  | neg | neg | 6.32 ± 0.27 µM | 31.3 ± 3.02 µM | 5.91 ± 0.33 µM
C=C(C)[C@@H]1CC[C@]2(COC(=O)CCC(=O)OCCCCC[P+](c3ccccc3)(c3ccccc3)c3ccccc3)CC[C@]3(C)C(CCC4[C@@]5(C)CC[C@H](OC(C)=O)C(C)(C)C5CC[C@]43C)C12 (stereo partly drawn) [7c, 3-O-Acetyl-28-O’-(3’-(5"-triphenylphosphoniopentyloxycarbonyl)propanoyl)betulin bromide] | 6.48 ± 0.04 µM | 15.5 ± 0.92 µM | 11.3 ± 0.53 µM | 1.0 McFarland’s scale (CFU/mL) |  |  | neg |  |  | neg | neg |  |  | 
C=C(C)[C@@H]1CC[C@]2(CO)CC[C@]3(C)[C@H](CC[C@@H]4[C@@]5(C)CC[C@H](O)C(C)(C)[C@@H]5CC[C@]43C)[C@@H]12 [BN, 3-lup-20(29)-ene-3,28-diol, reference compound] | > 12.5 µM | > 12.5 µM | > 12.5 µM | 5.1 McFarland’s scale (CFU/mL) | 5.6 McFarland’s scale (CFU/mL) |  | neg | 4.7 McFarland’s scale (CFU/mL) |  | neg | neg |  |  | 
